Tested on: male and female Sprague–Dawley rats
Test: 90-day subchronic oral gavage toxicity study
Type: in vivo, rat
Parameters: key to NOEL, absolute liver weight increase / LOEL, absolute liver weight increase / NOEL, relative kidney weight increase / LOEL, relative kidney weight increase / NOEL, absolute kidney weight increase / LOEL, absolute kidney weight increase / NOEL, relative liver weight increase / LOEL, relative liver weight increase: NR: no response, no statistically significant dose-dependent changes
Method: Subchronic (90-day) studies were performed in accordance with current U.S. EPA’s Toxic Substances Control Act Good Laboratory Practice (GLP) Standards, with the following two general exceptions to the GLP guidelines: Analysis of the dose formulations was conducted according to RTI-approved Standard Operating Procedures, and corn oil (the vehicle) was not characterized (certificate of analysis from the vendor is available in the appendices to the final reports). Male and female Sprague–Dawley rats (five dose levels plus a control, n = 10/sex/dose group, corn oil vehicle dose volume of 3 mL/kg; oral gavage) were used in these studies, and the rats were euthanized on SD 91. The dose levels for PFHI were 0, 12.5, 25, 50, 100, and 200 mg/kg-day. The dose levels for MHFPK were 0, 18.8, 37.5, 75, 150, and 300 mg/kg-day. The dose levels for PFNAC were 0, 0.1, 0.3, 1.0, 3.0, and 10 mg/kg-day for male rats and 0, 0.3, 1.0, 3.0, 10, and 30 mg/kg-day for female rats. For CTFPA, the dose levels were 0, 1.9, 3.8. 7.5, 15, and 30 mg/kg-day for male rats and 0, 6.3, 12.5, 25, 50, and 100 mg/kg-day for female rats. For each PFAS, three batches of dosing solution were prepared. The time between the batch preparation of the dosing solutions ranged between 29 and 39 days. Blood samples were collected from all the rats at termination for serum chemistry, hematology, coagulation, and the analysis of the parent PFAS chemical in the plasma. In vivo data collection and further detail on the endpoints examined postmortem are described below.
The rats were observed twice daily for morbidity and mortality throughout the study period. At least once prior to randomization to test groups and weekly thereafter, the rats were physically examined, and bodyweights were obtained. Feed consumption was quantified weekly starting on SD 1.
Neurotoxicity was evaluated using the functional observational battery (FOB) and measuring locomotor activity (LMA) 2–4 h post dosing on SDs 78–80 and 80–84, respectively. For both the 14- and 90-day studies, an ophthalmologic examination was conducted prior to randomization and near the end of the study, using indirect ophthalmoscopy and slit–lamp biomicroscopy (as needed) after the administration of a mydriatic solution.
Hematology, biochemistry, and coagulation endpoints were measured at the termination of the study. A Siemens Advia 2120i hematology analyzer (Siemens Healthineers, Erlangen, Germany) was used to measure (or calculate) the parameters related to the complete blood count, leukocyte differential count, and reticulocyte count. The hematology parameters are listed and described in Table 2. The prothrombin time […] and activated partial thromboplastin time (APTT) were measured using an Instrumentation Laboratory (Bedford, MA, USA) ACL Elite Pro coagulation analyzer (laser–nephelometric centrifugal method).
At necropsy, the rats were visually examined for external abnormalities and organ weights (absolute and relative to the BW and brain weight), which were recorded (paired organs weighed together). The tissues were preserved in 10% neutral buffered formalin (NBF), except for the ocular tissues, testes, and epididymides, which were preserved in modified Davidson’s fixative and later transferred to 10% NBF. Bone marrow smears were prepared from the femurs, and the slides were air-dried, fixed in methanol, stained, and stored at room temperature for possible future evaluation. The preserved tissues were embedded in paraffin, sectioned, stained with hematoxylin and eosin, and examined by a board-certified veterinary pathologist.
Statistical analysis was performed using Provantis™ Version 10 or greater (Instem LSS, Limited; Stone, Staffordshire, UK). Differences among the treatment groups compared to the control were evaluated using one-way analysis of variance (ANOVA) if the underlying assumptions of a normal distribution (Shapiro–Wilk test) and the homogeneity of the variance (Levene’s test) were satisfied. […]

## O=C(O)C(F)(Cl)C(F)(F)F (centres unmarked) [CTFPA, 2-Chloro-2,3,3,3-tetrafluoropropanoic acid]
female, 100 mg/kg-day
  Liver Weight: 11.31 g
  Liver/Body Weight: 3.57%
  Liver/Brain Weight: 575%
  MPV: 8.01 ± 0.50 fL
  PT: 14.22 s
  Total BW change: 107.34 g
  Total Food Consumed: 1615 g
male
  BMDL, absolute liver weight increase: 11.6 mg/kg-day
  LOEL, absolute kidney weight increase: NR
  LOEL, absolute liver weight increase: 7.5 mg/kg-day
  LOEL, relative kidney weight increase: NR
  LOEL, relative liver weight increase: 3.8 mg/kg-day
  NOEL, absolute kidney weight increase: NR
  NOEL, absolute liver weight increase: 3.8 mg/kg-day
  NOEL, relative kidney weight increase: NR
  NOEL, relative liver weight increase: 1.9 mg/kg-day
male, 1.9 mg/kg-day
  % BW Gain: 125.06%
  % Diff, % BW Gain: -0.26%
  % Diff, Total BW change: -0.03%
  % Diff, Total Food Consumed: 0.81%
  A/G: 0.95±0.07 ratio
  ALB: 3.35 ± 0.17 g/dL
  ALPi: 139.8±40.4 U/L
  APTT: 18.83 s
  BUN: 14.8 ± 1.8 mg/dL
  CHOL: 84.4 ± 9.8 mg/dL
  GLOB: 3.52 ± 0.20 g/dL
  GLUC: 170.1 ± 32.6 mg/dL
  HCT: 50.28±1.93%
  HGB: 15.58 ± 0.65 g/dL
  Kidney Weight: 3.12 g
  Kidney/Body Weight: 0.56%
  Kidney/Brain Weight: 150%
  Liver Weight: 14.47 g
  Liver/Body Weight: 2.58%
  Liver/Brain Weight: 697%
  MPV: 7.50 ± 0.37 fL
  PT: 15.55 s
  Total BW change: 316.63 g
  Total Food Consumed: 2084 g
male, 3.8 mg/kg-day
  % BW Gain: 137.76%
  % Diff, % BW Gain: 9.87%
  % Diff, Total BW change: 11.95%
  % Diff, Total Food Consumed: 9.08%
  A/G: 0.93±0.20 ratio
  ALB: 3.29 ± 0.48 g/dL
  ALPi: 131.8±40.1 U/L
  APTT: 16.21 s
  BUN: 15.6 ± 2.5 mg/dL
  CHOL: 79.3 ± 17.3 mg/dL
  GLOB: 3.65 ± 0.66 g/dL
  GLUC: 173.7 ± 32.5 mg/dL
  HCT: 49.12±2.10%
  HGB: 15.20 ± 0.71 g/dL
  Kidney Weight: 3.35 g
  Kidney/Body Weight: 0.56%
  Kidney/Brain Weight: 152%
  Liver Weight: 17.18 g
  Liver/Body Weight: 2.85%
  Liver/Brain Weight: 780%
  MPV: 7.79 ± 0.46 fL
  PT: 15.25 s
  Total BW change: 354.57 g
  Total Food Consumed: 2255 g
male, 7.5 mg/kg-day
  % BW Gain: 145.16%
  % Diff, % BW Gain: 15.76%
  % Diff, Total BW change: 18.72%
  % Diff, Total Food Consumed: 13.5%
  A/G: 1.05±0.14 ratio
  ALB: 3.39 ± 0.32 g/dL
  ALPi: 159.9±63.1 U/L
  APTT: 14.52 s
  BUN: 15.5 ± 2.2 mg/dL
  CHOL: 74.2 ± 8.5 mg/dL
  GLOB: 3.24 ± 0.19 g/dL
  GLUC: 165.6 ± 25.1 mg/dL
  HCT: 47.49±2.30%
  HGB: 14.52 ± 0.72 g/dL
  Kidney Weight: 3.47 g
  Kidney/Body Weight: 0.56%
  Kidney/Brain Weight: 159%
  Liver Weight: 20.01 g
  Liver/Body Weight: 3.24%
  Liver/Brain Weight: 912%
  MPV: 7.61 ± 0.38 fL
  PT: 15.14 s
  Total BW change: 376.00 g
  Total Food Consumed: 2345 g
male, 15 mg/kg-day
  % BW Gain: 135.14%
  % Diff, % BW Gain: 7.78%
  % Diff, Total BW change: 8.09%
  % Diff, Total Food Consumed: 14.6%
  A/G: 1.16±0.11 ratio
  ALB: 3.56 ± 0.21 g/dL
  ALPi: 237.6±66.2 U/L
  APTT: 12.89 s
  BUN: 15.8 ± 2.4 mg/dL
  CHOL: 63.6 ± 10.8 mg/dL
  GLOB: 3.07 ± 0.19 g/dL
  GLUC: 175.2 ± 15.8 mg/dL
  HCT: 47.72±2.58%
  HGB: 14.62 ± 0.84 g/dL
  Kidney Weight: 3.40 g
  Kidney/Body Weight: 0.58%
  Kidney/Brain Weight: 147%
  Liver Weight: 20.28 g
  Liver/Body Weight: 3.47%
  Liver/Brain Weight: 873%
  MPV: 7.56 ± 0.43 fL
  PT: 15.24 s
  Total BW change: 342.33 g
  Total Food Consumed: 2368 g
male, 30 mg/kg-day
  % BW Gain: 121.40%
  % Diff, % BW Gain: -3.18%
  % Diff, Total BW change: -0.72%
  % Diff, Total Food Consumed: 10.33%
  A/G: 1.19±0.12 ratio
  ALB: 3.72 ± 0.22 g/dL
  ALPi: 282.9±80.3 U/L
  APTT: 12.13 s
  Absolute and relative thymus weights: significantly increased
  BUN: 18.7 ± 2.7 mg/dL
  CHOL: 68.5 ± 10.0 mg/dL
  GLOB: 3.14 ± 0.22 g/dL
  GLUC: 175.3 ± 23.2 mg/dL
  HCT: 47.32±2.15%
  HGB: 14.44 ± 0.69 g/dL
  Kidney Weight: 3.35 g
  Kidney/Body Weight: 0.60%
  Kidney/Brain Weight: 148%
  Liver Weight: 21.52 g
  Liver/Body Weight: 3.82%
  Liver/Brain Weight: 954%
  MPV: 7.54 ± 0.47 fL
  PT: 15.74 s
  Total BW change: 314.42 g
  Total Food Consumed: 2281 g
